Values of other authors, collected in US20250108011A1, “ORAL DOSAGE FORMS OF A […] ACTIVE ACID-LABILE SALT AND METHODS AND USES RELATED THERETO” (Rijksuniversiteit Groningen, priority 2022, published 2025).

Tests used:
[1] = test system: hypertensive rats
[2] = test system: calciphylaxis; conditions: oral maintenance therapy, ref [21]
[3] = test system: hypercalciuric rats; conditions: oral, ref [22]
[4] = test system: pregnant Dahl salt-sensitive rats; conditions: ref [23]

SMILES: O=S([O-])([O-])=S.[Na+].[Na+] [STS, Sodium thiosulfate]
- renal effect of oral STS as a single treatment regimen ([1]; oral, ref [19]): renoprotective effects
- effect as a single treatment regimen in hypertensive rats ([1]; refs [17,18]): reduced blood pressure, proteinuria, kidney and heart damage
- cardiac effect of oral STS ([1]; same model, ref [20]): Cardioprotective effects
- tolerability of oral administration [2]: well tolerated with no reported side effects
- effect on nephrolithiasis [3]: reduce calcium phosphate nephrolithiasis
- effect on blood pressure [4]: antihypertensive effects
